Experimental data from paper PMC6112376, “Comprehensive Analyses and Prioritization of Tox21 10K Chemicals Affecting Mitochondrial Function by in-Depth Mechanistic Studies” (Environmental Health Perspectives, 2018).
Structures can show the parent of a compound that is named as a salt. Where two headings read alike, the source gives them in different places.

What was measured:
rat primary hepatocytes [1] = test system: rat primary hepatocytes
HepG2 cells [2] = conditions: for IC50: read-out: MMP assays IC50 (µM) HepG2
HepG2 cells [3] = conditions: cited from earlier work
rat primary hepatocytes [4] = assay: MMP assay in rat primary hepatocytes; conditions: for IC50: read-out: MMP assays IC50 (µM) Rat Hepatocytes
[5] = HepG2 cells, single number from one experiment
[6] = read-out: MMP assays IC50 (µM) qHTS-HepG2
[7] = rat hepatocytes, mean ± SD of three experiments
[8] = read-out: MMP assays IC50 (µM), qHTS-HepG2

| SMILES | MMP assays efficacy (%) Rat Hepatocytes (rat primary hepatocytes [1]) | MMP assays efficacy (%) HepG2 (HepG2 cells [2]; [5]) | IC50 (HepG2 cells [2]; [5]) | MMP assays efficacy (%) qHTS-HepG2 (HepG2 cells [3]) | IC50 (HepG2 cells [3]; [6]) | MMP assays IC50 (µM) Rat Hepatocytes (rat primary hepatocytes [4]; [7]) | MMP assays efficacy (%) HepG2 (HepG2 cells [2]) | IC50 (HepG2 cells [2]) | IC50 (rat primary hepatocytes [4]) | MMP assays IC50 (µM) Rat Hepatocytes (rat primary hepatocytes [4]) | IC50 (HepG2 cells [3]; [8]) | IC50 (rat primary hepatocytes [4]; [7]) | MMP assays IC50 (µM) HepG2 (HepG2 cells [2]) | IC50 (rat primary hepatocytes [4]; Rattus norvegicus, Hepatocyte) | MMP assays IC50 (µM) qHTS-HepG2 (HepG2 cells [3]) |
| --- | --- | --- | --- | --- | --- | --- | --- | --- | --- | --- | --- | --- | --- | --- | --- |
| CC(=O)C1(C)CC2=C(CCCC2(C)C)CC1C (centres unmarked) | inactive | -43% | 35.5 µM | -50±18% | 27.3 ± 20.4 µM | inactive |  |  |  |  |  |  |  |  |  |
| Oc1ccc(C(c2ccc(O)cc2)C(Cl)(Cl)Cl)cc1 | -89±3% |  |  | -101±13% | 8.78 ± 1.43 µM |  | -103% | 10 µM | 33.2 ± 24.2 µM |  |  |  |  |  |  |
| Cc1c([N+](=O)[O-])c(C)c([N+](=O)[O-])c(C(C)(C)C)c1[N+](=O)[O-] | inactive |  |  | -82±11% | 20.1 ± 6.09 µM |  | -24% | 7.94 µM |  | inactive |  |  |  |  |  |
| COC(=O)c1c(C)cc(O)c(C)c1O | -81±57% | -103% | 25.1 µM |  |  |  |  |  |  |  | 16 ± 6.62 µM | 30.6 ± 28.4 µM |  |  |  |
| Clc1ccc(Nc2nnc(Cc3ccncc3)c3ccccc23)cc1 | -51±4% |  |  | -81±8% |  |  | -34% | 30.8 µM | 20.7 ± 14.7 µM |  | 25.6 ± 4.41 µM |  |  |  |  |
| CCN1CCC2(CC1)COc1cc3c(cc12)N(C(=O)c1ccc(-c2ccc(-c4nnc(C)o4)cc2C)cc1)CC3.Cl | -109±26% |  |  | -58±10% | 6.09 ± 2.54 µM |  | -111% | 19.9 µM | 40.9 ± 16 µM |  |  |  |  |  |  |
| CC1=Nc2ccc3ccccc3c2C1(C)C [1,1,2-Trimethyl-1H-benzo[e]indole] | -100±23% |  |  | -76±16% | 23.4 ± 4.03 µM |  | -96% | 10 µM | 34.9 ± 8.48 µM |  |  |  |  |  |  |
| Cl.Cl.Nc1ccccc1N [1,2-Phenylenediamine dihydrochloride] | -104±10% |  |  | -99±9% | 0.44 ± 0.2 µM |  | -90% | 1.78 µM | 14.2 ± 2.3 µM |  |  |  |  |  |  |
| CCCCCCCCCCn1cc[n+](CCCCCCCCCC)c1C.[Cl-] [1,3-Didecyl-2-methylimidazolium chloride] | -110±29% |  |  | -83±13% | 3.86 ± 4.19 µM |  | -104% | 3.16 µM | 26.2 ± 3.35 µM |  |  |  |  |  |  |
| Nc1c(Br)cc(Br)c2c1C(=O)c1ccccc1C2=O [1-Amino-2,4-dibromoanthraquinone] | -48±19% |  |  | -54±9% | 2.78 ± 3.75 µM |  | inactive |  |  |  |  |  | inactive | 27.4 ± 4.44 µM |  |
| O=[N+]([O-])c1ccc(F)c([N+](=O)[O-])c1 [1-Fluoro-2,4-dinitrobenzene] | -68±38% |  |  | -104±8% | 3.71 ± 0.6 µM |  | -103% | 5.48 µM | 8.3 ± 5.67 µM |  |  |  |  |  |  |
| O=C1NC(=O)c2cccc3cccc1c23 [1H-Benzo[de]isoquinoline-1,3(2H)-dione] | -43±22% |  |  | -77±24% | 8.31 ± 3.47 µM |  | -77% | 14.1 µM | 5.56 ± 8.92 µM |  |  |  |  |  |  |
| Oc1cc(Cl)c(Cl)cc1Cl.[Na] [2,4,5-Trichlorophenol sodium salt] | -130±56% |  |  | -99±23% | 5.05 ± 2.09 µM |  | -98% | 10 µM | 27.3 ± 25.2 µM |  |  |  |  |  |  |
| CC(C)(c1ccccc1)c1ccc(O)c(C(C)(C)c2ccccc2)c1 [2,4-Bis(1-methyl-1-phenylethyl)phenol] | -78±5% |  |  | -108±7% | 3.49 ± 1.51 µM |  | -90% | 2.82 µM | 43.9 ± 17.4 µM |  |  |  |  |  |  |
| COc1ccc(N)cc1N.O=S(=O)(O)O [2,4-Diaminoanisole sulfate] | -58±24% |  |  | -95±6% | 2.51 ± 1.16 µM |  | -125% | 7.94 µM | 19.6 ± 19.3 µM |  |  |  |  |  |  |
| CC(C)c1ccc(O)c(C(C)C)c1 [2,4-Diisopropylphenol] | inactive |  |  | -107±10% | 17.2 ± 1.99 µM |  | -115% | 35.5 µM |  | inactive |  |  |  |  |  |

| SMILES | MMP assays efficacy (%) Rat Hepatocytes (rat primary hepatocytes [1]) | MMP assays efficacy (%) HepG2 (HepG2 cells [2]; [5]) | IC50 (HepG2 cells [2]; [5]) | MMP assays efficacy (%) qHTS-HepG2 (HepG2 cells [3]) | IC50 (HepG2 cells [3]; [6]) | MMP assays IC50 (µM) Rat Hepatocytes (rat primary hepatocytes [4]; [7]) | MMP assays efficacy (%) HepG2 (HepG2 cells [2]) | IC50 (HepG2 cells [2]) | IC50 (rat primary hepatocytes [4]) | MMP assays IC50 (µM) Rat Hepatocytes (rat primary hepatocytes [4]) | IC50 (HepG2 cells [3]; [8]) | IC50 (rat primary hepatocytes [4]; [7]) | MMP assays IC50 (µM) HepG2 (HepG2 cells [2]) | IC50 (rat primary hepatocytes [4]; Rattus norvegicus, Hepatocyte) | MMP assays IC50 (µM) qHTS-HepG2 (HepG2 cells [3]) |
| --- | --- | --- | --- | --- | --- | --- | --- | --- | --- | --- | --- | --- | --- | --- | --- |
| Nc1ccc(-c2ccc(N)c(N)c2)cc1N [3,3',4,4'-Tetraaminobiphenyl tetrahydrochloride] | -39±5% |  |  | -92±8% | 0.34 ± 0.26 µM |  | -82% | 2 µM | 9.46 ± 4.43 µM |  |  |  |  |  |  |
| Nc1ccc(-c2ccc(N)c(N)c2)cc1N [3,3'-Diaminobenzidine] | -62±22% |  |  | -115±16% | 13.7 ± 14.9 µM |  | -55% | 4.47 µM | 30.7 ± 28.3 µM |  |  |  |  |  |  |
| COc1cc([C@@H]2c3cc4c(cc3[C@@H](O)[C@H]3COC(=O)[C@H]23)OCO4)cc(OC)c1O [4'-Demethylepipodophyllotoxin] | inactive |  |  | -51±8% | 2.66 ± 3.92 µM |  | -63% | 2.18 µM |  | inactive |  |  |  |  |  |
| O=C1CCCc2c1cc1ccc3cccc4ccc2c1c34 [9,10-Dihydrobenzo[a]pyren-7(8H)-one] | -79±35% |  |  | -90±6% | 9.81 ± 2.08 µM |  | inactive |  | 16.8 ± 7.33 µM |  |  |  | inactive |  |  |
| CC(=Cc1ccccc1)[N+](=O)[O-] [(2-Nitro-1-propenyl)benzene] | -107±47% |  |  | -105±10% | 38.6 ± 15.3 µM |  | inactive |  |  |  |  |  | inactive | 25.9 ± 8.35 µM |  |
| O=C1NCN(c2ccccc2)C12CCN(CCCOc1ccc(F)cc1)CC2 [AMI-193] | -37±21% |  |  | -73±11% | 5.82 ± 3.05 µM |  | -75% | 7.74 µM | 26 ± 12.2 µM |  |  |  |  |  |  |
| CC=O [Acetaldehyde] | -52±35% |  |  | -90±14% | 18 ± 6.38 µM |  | inactive |  | 6.65 ± 4.48 µM |  |  |  | inactive |  |  |
| CCCCC(CC)C(=O)[O-].CCCCC(CC)C(=O)[O-].[Ba+2] (centres unmarked) [Barium bis(2-ethylhexanoate)] | -43±30% |  |  | -58±20% | 15.4 ± 10.3 µM |  | inactive |  |  | inactive |  |  | inactive |  |  |
| [Ba+2].[Cl-].[Cl-] [Barium chloride] | inactive |  |  | -68±11% | 16.6 ± 8.5 µM |  | -46% | 39.8 µM |  | inactive |  |  |  |  |  |
| Cl.Cl.Nc1ccc(-c2ccc(N)cc2)cc1 [Benzidine dihydrochloride] | inactive |  |  | inactive |  |  | -67% | 17.7 µM |  | inactive |  |  |  |  | inactive |
| CCC1(c2ccccc2)C(=O)NC(=O)N(C(=O)c2ccccc2)C1=O (centres unmarked) [Benzobarbital] | inactive |  |  | -82±27% | 24.1 ± 5.12 µM |  | inactive |  |  | inactive |  |  | inactive |  |  |
| Cl.Cl.NNCc1ccccc1 [Benzylhydrazine dihydrochloride] | inactive |  |  | -106±12% | 27.8 ± 3.21 µM |  | -88% | 19.9 µM |  | inactive |  |  |  |  |  |
| C=C(C)C(=O)OCC(O)COc1ccc(C(C)(C)c2ccc(OCC(O)COC(=O)C(=C)C)cc2)cc1 (centres unmarked) [Bisphenol A glycidyl methacrylate] | -70±50% |  |  | -121±28% | 12.2 ± 11.9 µM |  | -118% | 15.8 µM | 38.1 ± 9.22 µM |  |  |  |  |  |  |
| CC(c1ccc(O)cc1)c1ccc(O)cc1 [Bisphenol E] | -56±19% |  |  | -127±8% | 27.6 ± 1.8 µM |  | -147% | 25.1 µM | 36.5 ± 19.2 µM |  |  |  |  |  |  |
| O=c1oc2ccccc2c(O)c1C(CC(O)c1ccc(-c2ccc(Br)cc2)cc1)c1ccccc1 (centres unmarked) [Bromadiolone] | -79±51% |  |  | -105±3% | 16.7 ± 1.13 µM |  | -108% | 4.35 µM | 3.4 ± 0.83 µM |  |  |  |  |  |  |
| CC(C)C[C@H]1C(=O)N2CCC[C@H]2[C@]2(O)O[C@](NC(=O)[C@@H]3C=C4c5cccc6[nH]c(Br)c(c56)C[C@H]4N(C)C3)(C(C)C)C(=O)N12 [Bromocriptine mesylate] | -74±34% |  |  | -111±8% | 11.2 ± 2.78 µM |  | -113% | 13.5 µM | 12.6 ± 1.6 µM |  |  |  |  |  |  |
